Results: patent publication US5348977A, “Cobalt complexes as anti-cancer agents” (Warner Lambert Company, priority 1991, dated 1994)

Experiments:
[1] = tested on: AA8 cells; test: Growth inhibition, AA8 cells with lethally-irradiated AA8 feeder cells, aerobic or hypoxic 18 h (Table 3); format: cell-based, hamster; details: for IC50: AA8, aerobic, 18 h exposure, read-out: IC50 (air) AA8; for HF(air): IC50 (AA8)/IC50 (UV4), aerobic, 1080 min; for IC50 (air)/IC50 (N2) AA8: aerobic IC50 /hypoxic IC50, AA8, 18 h
Experimental: (§1) IC50 Growth inhibition studies were performed as described in detail elsewhere (W. R. Wilson, R. F. Anderson and W. A. Denny. J. Med. Chem., 1989, 32, 23; G. J. Finlay, B. C. Baguley and W. R. Wilson. Anal. Biochem., 1984, 139, 172.), using 200 viable AA8 or 300 viable UV4 cells plus 5000 lethally-irradiated AA8 feeder cells per well in 96-well tissue culture dishes. AA8 and UV4 cells were maintained in logarithmic-phase growth in […] tissue culture flasks with subculture twice weekly by trypsinization. The growth medium was antibiotic-free Alpha MEM with 10% v/v heat-inactivated (56° C., 40 min) fetal calf serum. Doubling times were approximately 14h for AA8 and […] cells.
(§2) air/N2 ratio Ratio of IC50 values after exposure as detailed above under either aerobic (air) or hypoxic (N2) conditions (=aerobic IC50 /hypoxic IC50).
(§3) HF Ratio of IC50 values for a compound after exposure as detailed above against AA8 and UV4 cell lines (=IC50 (AA8)/IC50 (UV4)).

[2] = tested on: UV4 cells; test: Growth inhibition, UV4 cells with lethally-irradiated AA8 feeder cells, aerobic or hypoxic 18 h (Table 3); format: cell-based; details: aerobic IC50 /hypoxic IC50, UV4, 18 h
Experimental: as §1, §2, §3

[3] = Square wave voltammetry, peak potential of cathodic wave; format: physicochemical; details: vs NHE, platinum disc electrode, 0.15 M (n-Bu4 N)ClO4 in CH2 Cl2, ferrocene internal reference
Source text: E1/2 Peak potentials (vs NHE) of cathodic wave, determined by square wave voltammetry at a platinum disc electrode in 0.15 M (n-Bu4 N)ClO4 in CH2 Cl2 with ferrocene as an internal reference.

[4] = tested on: UV5 cells; test: Growth inhibition, UV5 cells, aerobic 18 h (Table 2); format: cell-based; details: 18 h exposure, 1 determination
Experimental: (§4) ([Co(Macac)2 (DCE)]ClO4) was prepared as described in Example E. Growth inhibition studies were performed as described in detail by W. R. Wilson, R. F. Anderson and W. A. Denny in J. Med. Chem., 1989 32, 23 and by G. J. Finlay, B. C. Baguley and W. R. Wilson in Anal. Biochem., 1984, 139, 172, herein specifically incorporated by reference. 200 AA8 cells in 96 well tissue culture dishes, 300 UV4 cells in 96 well tissue culture dishes, 300 UV5 cells in 96 well tissue culture dishes, 50 EMT6 cells in 96 well tissue culture dishes, 200 SCC7 cells in 96 well tissue culture dishes, 1500 FME cells in 96 well tissue culture dishes and 500 HCT-8 cells in 96 well tissue culture dishes were prepared. The cells were maintained in logarithmic-phase growth in 25 cm tissue culture flasks with subculture twice weekly by trypsinization. The growth medium was antibiotic-free Alpha MEM with 10% v/v heat-inactivated (56° C., 40 min.) fetal calf serum. Doubling times were approximately 14 hours for AAS, 16 hours for UV4, 16 hours for UV5, 10 hours for EMT6, 14 hours for SCC7, 24 hours for FME and 20 hours for HCT-8 cells. Cultures were tested for mycoplasma contamination frequently, using a cytochemical staining method (I. R. Chen, Exp. Cell Res., 1977, 104, 255). […]

[5] = tested on: HCT-8 cells; test: Growth inhibition, HCT-8 cells, aerobic 18 h (Table 2); format: cell-based; details: HCT-8 (human colon carcinoma), 18 h exposure, 1 determination
Experimental: as §4

[6] = tested on: AA8 cells; test: Growth inhibition, AA8 cells, aerobic 18 h (Table 2); format: cell-based, hamster; details: 18 h exposure, 5 determinations
Experimental: as §4

[7] = tested on: SCC7 cells; test: Growth inhibition, SCC7 cells, aerobic 18 h (Table 2); format: cell-based; details: 18 h exposure, 1 determination
Experimental: as §4

[8] = tested on: FME cells; test: Growth inhibition, FME cells, aerobic 18 h (Table 2); format: cell-based, human
Experimental: as §4

[9] = tested on: UV4 cells; test: Growth inhibition, UV4 cells, aerobic 18 h (Table 2); format: cell-based; details: 18 h exposure, 5 determinations
Experimental: as §4

[10] = tested on: EMT6 cells; test: Growth inhibition, EMT6 cells, aerobic 18 h (Table 2); format: cell-based; details: 18 h exposure, 6 determinations
Experimental: as §4

| Substance | IC50 [1] [µM] | HF(air) [1] | IC50 (air)/IC50 (N2) AA8 [1] | IC50 (air)/IC50 (N2) UV4 [2] | E1/2 [3] [mV] | IC50 [4] [µM] | IC50 [5] [µM] | IC50 [6] [µM] | IC50 [7] [µM] | IC50 ([8]; FME (human breast carcinoma), aerobic, 18 h exposure, 6 determinations) [µM] | potency in human lines as compared to AA8 ([8]; FME and HCT-8 versus AA8, aerobic) | IC50 [9] [µM] | IC50 [10] [µM] |
| --- | --- | --- | --- | --- | --- | --- | --- | --- | --- | --- | --- | --- | --- |
| [Co(Clacac)2 (BCE)]Cl [Compound 5] | 26.1 ± 2 | 12.8 ± 3.5 | 0.54 ± 0.12 | 0.92 ± 0.21 | -132 | – | – | – | – | – | – | – | – |
| [Co(Etacac)2 (BCE)]ClO4 [Compound 3] | 139 ± 18.3 | 4.8 ± 1.4 | 0.79 ± 0.24 | 1.77 ± 0.75 | -460 | – | – | – | – | – | – | – | – |
| [Co(Etacac)2 (DCE)]Cl.2H2 O [Compound 8] | 1.56 ± 0.08 | 21.2 ± 4.0 | 1.28 ± 0.23 | 2.14 ± 0.56 | -352 | – | – | – | – | – | – | – | – |
| [Co(Macac)2 (BCE)]ClO4 [Compound 2] | 992 | 3.25 | < 1 | – | -420 | – | – | – | – | – | – | – | – |
| [Co(Macac)2 (DCE)]ClO4 [Compound 7] | 2.91 ± 0.47 | 50.8 ± 3.7 | 2.81 ± 0.16 | 2.03 ± 0.47 | -307 | 2.64 | 4.44 | 4.56 ± 0.62 | 0.31 | 1.3 ± 0.13 | higher potency (lower IC50) in both of the human lines as compared to AA8 | 0.1 ± 0.02 | 1.61 ± 0.21 |
| [Co(Pracac)2 (BCE)]ClO4 [Compound 4] | 18.5 ± 3.3 | 3.5 ± 0.7 | 0.85 ± 0.35 | 1.20 ± 0.50 | -500 | – | – | – | – | – | – | – | – |
| [Co(acac)2 (BCE)]ClO4 [Compound 1] | 893 ± 161 | 14.0 ± 4.3 | 0.42 ± 0.06 | 3.76 ± 1.46 | -308 | – | – | – | – | – | – | – | – |
| [Co(acac)2 (DCE)]ClO4 [Compound 6] | 1.75 ± 0.1 | 48.2 ± 9.0 | 1.33 ± 0.13 | 0.85 ± 0.03 | -232 | – | – | – | – | – | – | – | – |
